From patent US20230340012A1, “NATURAL AND SYNTHETIC COMPOUNDS FOR TREATING CANCER AND OTHER DISEASES” (PACIFIC ARROW LIMITED, priority 2009, published 2023)
Like-named read-outs stand apart in the source and are kept apart here.

Assays:
cancer cells [1] = assay: Inhibition of cancer growth, cancer invasion, cell invasion or cancer cell invasion; assay type: cell-based
From the text: The program is based on our purification methods and biological assays including the MTT assay. See International Application No. PCT/US05/31900, filed Sep. 7, 2005, U.S. Serial No. 11/289,142, filed Nov. 28, 2005, and U.S. Serial No. 11/131551, filed May 17, 2005, and PCT/US2008/002086, 1188-ALA-PCT, filed Feb. 15, 2008, 12/344,682, 1020-B1-US, filed Dec. 29, 2008. The details of Analysis of gene expression of ES2 cells after Y-treatment by Microarray, Data Analysis Methods and Western blot in PCT/US2008/002086, 1188-ALA-PCT, filed Feb. 15, 2008, and the cell invasion experiments methods in International Application PCT/US2010/0042240, filed Jul. 16, 2010.

Erythrocytes (RBC) = assay: The haemolytic assay; details: in words, no concentration given
cancer cells [2] = assay: MTT cytotoxic assay of esterification products (Cytotoxicity activity); assay type: cell-based, human
Procedure, shortened: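 Cytotoxicity was read by MTT (Carmichael method, modified), with cells seeded 24 h ahead of treatment. Sixteen human cancer lines spanning bone, lung, bladder, ovary, colon, pancreas, prostate, skin, mouth, kidney, breast, liver, brain, leukemia and cervix were used. Test samples were acyl chloride esterification products of triterpenes, as mixtures or HPLC-purified compounds.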

[3] = esterification products isolated with HPLC, graded strong / moderate / weak
[4] = esterification products of E4A—Tig—N with senecioyl chloride

SMILES: CC1O[C@@H](OC2[C@H](OC3[C@H](O[C@H]4C(O[C@@H]5OC(CO)[C@H](O)[C@@H](O)C5O)[C@H](O[C@H]5CC[C@@]6(C)C(CC[C@]7(C)C6CC[C@]68O[C@H](O)[C@]9(C6CC(C)(C)[C@@H](O)[C@@H]9O)[C@H](O)C[C@]87C)C5(C)C)OC(C(=O)O)[C@H]4O)OC(CO)[C@H](O)[C@H]3O)OC(C)[C@H](O)[C@@H]2O)C(O)[C@@H](O)[C@H]1O (stereo partly drawn) [AKOH-M10]
- inhibiting cancer growth, cancer invasion, cell invasion or cancer cell invasion (cancer cells [1]): do not show the ability

SMILES: CC1(C)CC2C3=CCC4[C@@]5(C)CC[C@H](O[C@@H]6OC(C(=O)O)[C@@H](O)[C@@H](O[C@@H]7O[C@@H](CO)[C@@H](O)C7O)C6O[C@@H]6OC(CO)[C@H](O)[C@@H](O)C6O)C(C)(C)C5CC[C@@]4(C)[C@]3(C)[C@@H](O)[C@@H](O)[C@@]2(CO)[C@@H](O)[C@@H]1O (stereo partly drawn) [AKOH]
- anti-cancer activity (cancer cells [1]): no anti-cancer activity
- inhibiting cancer growth, cancer invasion, cell invasion or cancer cell invasion (cancer cells [1]): no effect
- inhibiting cancer growth, cancer invasion, cell invasion or cancer cell invasion (cancer cells [1]; listed as AKOH-Y): do not show the ability
- hemolytic activity (Erythrocytes (RBC)): no hemolytic activity

SMILES: CC1(C)CC2C3=CCC4C5(C)CCC(O)C(C)(CO)C5CCC4(C)C3(C)C(O)C(O)C2(CO)C(O)C1O (stereo not drawn) [Compound E4AY2]
- anti-cancer activity (cancer cells [1]): no anti-cancer activity
- hemolytic activity (Erythrocytes (RBC)): no hemolytic activity

SMILES: CC1(C)CC2C3=CCC4C5(C)CCC(O)C(C)(C)C5CCC4(C)C3(C)CC(O)C2(CO)C(O)C1O (stereo not drawn) [Compound E5A]
- anti-cancer activity (cancer cells [1]): no anti-cancer activity
- inhibiting cancer growth, cancer invasion, cell invasion or cancer cell invasion (cancer cells [1]): no effect
- hemolytic activity (Erythrocytes (RBC)): no hemolytic activity

SMILES: C=CCCC(=O)OC1C(O)C2(COC(=O)C(C)=CC)C(O)CC3(C)C(=CCC4C5(C)CCC(O)C(C)(COC(=O)C(C)=CC)C5CCC43C)C2CC1(C)C (stereo not drawn) [Tig—R—Pen—2]
- Cytotoxicity activity (cancer cells [2]; [3]): moderate

SMILES: C=CCCC(=O)OC1C(O)C(C)(C)CC2C3=CCC4C5(C)CCC(O)C(C)(COC(=O)C(C)=CC)C5CCC4(C)C3(C)CC(O)C21COC(=O)C(C)=CC (stereo not drawn) [Tig—R—Pen—3]
- Cytotoxicity activity (cancer cells [2]; [3]): moderate

SMILES: C=CCCC(=O)OC1CCC2(C)C(CCC3(C)C2CC=C2C4CC(C)(C)C(O)C(O)C4(COC(=O)C(C)=CC)C(O)CC23C)C1(C)COC(=O)C(C)=CC (stereo not drawn) [Tig—R—Pen—4]
- Cytotoxicity activity (cancer cells [2]; [3]): moderate

SMILES: CC=C(C)C(=O)OCC1(C)C(O)CCC2(C)C1CCC1(C)C2CC=C2C3CC(C)(C)C(OC(=O)C=C(C)C)C(OC(=O)C=C(C)C)C3(COC(=O)C(C)=CC)C(O)CC21C (stereo not drawn) [Tig—R—Sen—1]
- Cytotoxicity activity (cancer cells [2]; [3]): weak

SMILES: CC=C(C)C(=O)OCC1(C)C(O)CCC2(C)C1CCC1(C)C2CC=C2C3CC(C)(C)C(OC(=O)C=C(C)C)C(O)C3(COC(=O)C(C)=CC)C(O)CC21C (stereo not drawn) [Tig—R—Sen—2]
- Cytotoxicity activity (cancer cells [2]; [3]): moderate

SMILES: CC=C(C)C(=O)OCC1(C)C(O)CCC2(C)C1CCC1(C)C2CC=C2C3CC(C)(C)C(O)C(OC(=O)C=C(C)C)C3(COC(=O)C(C)=CC)C(O)CC21C (stereo not drawn) [Tig—R—Sen—3]
- Cytotoxicity activity (cancer cells [2]; [3]): moderate

SMILES: CC=C(C)C(=O)OCC1(C)C(OC(=O)C=C(C)C)CCC2(C)C1CCC1(C)C2CC=C2C3CC(C)(C)C(O)C(O)C3(COC(=O)C(C)=CC)C(O)CC21C (stereo not drawn) [Tig—R—Sen—4]
- Cytotoxicity activity (cancer cells [2]; [3]): moderate

SMILES: CC=C(C)C(=O)OCC1(C)C(OC(=O)C=C(C)C)CCC2(C)C1CCC1(C)C2CC=C2C3CC(C)(C)C(OC(=O)C=C(C)C)C(O)C3(COC(=O)C(C)=CC)C(O)CC21C (stereo not drawn) [Tig—R—Sen—5]
- Cytotoxicity activity (cancer cells [2]; [3]): weak

SMILES: CC=C(C)C(=O)OCC1(C)C(OC(=O)C=C(C)C)CCC2(C)C1CCC1(C)C2CC=C2C3CC(C)(C)C(O)C(OC(=O)C=C(C)C)C3(COC(=O)C(C)=CC)C(O)CC21C (stereo not drawn) [Tig—R—Sen—6]
- Cytotoxicity activity (cancer cells [2]; [3]): weak

SMILES: CC=C(C)C(=O)OCC1(C)C(O)CCC2(C)C1CCC1(C)C2CC=C2C3CC(C)(C)C(OC(=O)C=C(C)C)C(O)C3(COC(=O)C=C(C)C)C(O)CC21C (stereo not drawn) [Tig—Sen—2]
- Cytotoxicity activity (cancer cells [2]; [4]): moderate

SMILES: CC=C(C)C(=O)OCC1(C)C(O)CCC2(C)C1CCC1(C)C2CC=C2C3CC(C)(C)C(O)C(OC(=O)C=C(C)C)C3(COC(=O)C=C(C)C)C(O)CC21C (stereo not drawn) [Tig—Sen—3]
- Cytotoxicity activity (cancer cells [2]; [4]): moderate

SMILES: CC=C(C)C(=O)OCC1(C)C(OC(=O)C=C(C)C)CCC2(C)C1CCC1(C)C2CC=C2C3CC(C)(C)C(O)C(O)C3(COC(=O)C=C(C)C)C(O)CC21C (stereo not drawn) [Tig—Sen—4]
- Cytotoxicity activity (cancer cells [2]; [4]): moderate

SMILES: CC=C(C)C(=O)OCC1(C)C(O)CCC2(C)C1CCC1(C)C2CC=C2C3CC(C)(C)C(OC(=O)C=C(C)C)C(O)C3(CO)C(O)CC21C (stereo not drawn) [Tig—Sen—5]
- Cytotoxicity activity (cancer cells [2]; [4]): moderate

SMILES: CC=C(C)C(=O)OCC1(C)C(O)CCC2(C)C1CCC1(C)C2CC=C2C3CC(C)(C)C(O)C(OC(=O)C=C(C)C)C3(CO)C(O)CC21C (stereo not drawn) [Tig—Sen—6]
- Cytotoxicity activity (cancer cells [2]; [4]): moderate
